Assay results from patent US20130109718A1, “1-CYCLOALKYL- OR 1-HETEROCYCLYL-HYDROXYIMINO-3-PHENYL-PROPANES” (Hoffmann-La Roche Inc., priority 2011, published 2013).
pEC50: −log10 of the molar value.

biological target: T1, human GPBAR1 receptor (Homo sapiens, UniProt Q8TDU6); test: functional cAMP assay in CHO-dhfr(minus) cells expressing human GPBAR1 receptors; format: cell-based; settings: CHO-dhfr(minus) cells expressing human GPBAR1, 30 min at 30° C.
T1 construct: expressed in transfected cells
T1 sequence (Q8TDU6 1-330): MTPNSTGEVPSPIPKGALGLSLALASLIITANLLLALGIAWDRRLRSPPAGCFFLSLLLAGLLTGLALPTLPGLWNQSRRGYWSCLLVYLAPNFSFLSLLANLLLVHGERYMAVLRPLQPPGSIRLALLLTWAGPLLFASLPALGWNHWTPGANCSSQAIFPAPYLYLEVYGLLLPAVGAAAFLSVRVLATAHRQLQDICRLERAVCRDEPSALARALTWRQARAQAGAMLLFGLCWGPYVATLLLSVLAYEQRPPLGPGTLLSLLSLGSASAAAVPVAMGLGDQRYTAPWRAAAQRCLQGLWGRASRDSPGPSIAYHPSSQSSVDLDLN
Source text: The cDNA of the human GPBAR1 receptor (Genbank: NM_170699 with the exception of a silent C:G mutation at position 339 from the start codon) was amplified by polymerase chain reaction (PCR) from human cDNA and inserted into pCineo (Promega) by standard methods (Current Protocols in Molecular Biology, Wiley Press, ed. Ausubel et al.). The final clone was verified by DNA sequence analysis. The plasmid was transfected into CHO cells deficient in dihydrofolate reductase activity (CHO-dhfr-) using Lipofectamine plus (Invitrogen). Clones were isolated in limited dilution conditions and identified by activities in the cAMP assay using lithocholic acid as agonist. A clonal cell line displaying the greatest activity in cAMP increases was selected and identified as giving consistently good responses for up to at least 20 passages.
CHO-dhfr(minus) cells expressing human GPBAR1 receptors are seeded 17-24 hours prior to the experiment 50.000 cells per well in a black 96 well plate with flat clear bottom (Corning Costar #3904) in DMEM (Invitrogen No. 31331), 1×HT supplement, with 10% fetal calf serum and incubated at 5% CO2 and 37° C. in a humidified incubator. The growth medium was exchanged with Krebs Ringer Bicarbonate buffer with 1 mM IBMX and incubated at 30° C. for 30 min. Compounds were added to a final assay volume of 100 μl and incubated for 30 min at 30° C. The assay was stopped by the addition of 50 μl lysis reagent (Tris, NaCl, 1.5% Triton X100, 2.5% NP40, 10% NaN3) and 50 μl detection solutions (20 μM mAb Alexa700-cAMP 1:1, and 48 μM Ruthenium-2-AHA-cAMP) and shaken for 2 h at room temperature. The time-resolved energy transfer is measured by a TRF reader (Evotec Technologies GmbH, Hamburg Germany), equipped with a ND:YAG laser as excitation source. The plate is measured twice with the excitation at 355 nm and at the emission with a delay of 100 ns and a gate of 100 ns, total exposure time 10 s at 730 (bandwidth 30 nm) or 645 nm (bandwidth 75 nm), respectively. The measured signal at 730 nm has to be corrected for the ruthenium background, the direct excitation of Alexa and the buffer control. The FRET signal is calculated as follows: FRET=T730-Alexa730-P(T645-B645) with P=Ru730-B730/Ru645-B645, where T730 is the test well measured at 730 nM, T645 is the test well measured at 645 nm, B730 and B645 are the buffer controls at 730 nm and 645 nm, respectively. cAMP content is determined from the function of a standard curve spanning from 10 μM to 0.13 nM cAMP.
EC50 values were determined using Activity Base analysis (ID Business Solution, Limited). The EC50 values for a wide range of bile acids generated from this assay were in agreement with the values published in the scientific literature. Specificity for GPBAR1 was tested in non-transfected CHO cells in the same assay as above.

| pEC50 | Structure (SMILES) |
| --- | --- |
| 6.93 | Cc1ccccc1[C@H](C/C(=N\O)C1CCC(=O)N(C)C1)c1ccc(S(C)(=O)=O)cc1 (mixture of isomers) [Example 1, 5-((R,E)-1-(Hydroxyimino)-3-(4-(methylsulfonyl)phenyl)-3-o-tolylpropyl)-1-methylpiperidin-2-one] |
| 6.84 | Cc1ccccc1[C@H](C/C(=N\O)C1CCC(=O)N(C)C1)c1ccc(S(C)(=O)=O)cc1 (single isomer, unassigned) [Example 3] |
| 7.54 | Cc1ccccc1[C@H](C/C(=N\O)C1CCC(=O)N(C)C1)c1ccc(S(C)(=O)=O)cc1 (single isomer, unassigned) [Example 4] |
| 5.06 | Cc1ccccc1[C@H](C/C(=N/O)C1CCC(=O)N(C)C1)c1ccc(S(C)(=O)=O)cc1 (stereo partly drawn) [Example 2, 5-((R,Z)-1-(hydroxyimino)-3-(4-(methylsulfonyl)phenyl)-3-o-tolylpropyl)-1-methylpiperidin-2-one] |
| 7.38 | Cc1ccccc1[C@H](C/C(=N\O)C1CCC(=O)N(C)C1)c1ccc(N2CCC(C(=O)O)CC2)cc1 (stereo partly drawn) [Example 5, Sodium 1-(4-((1R,E)-3-(hydroxyimino)-3-(1-methyl-6-oxopiperidin-3-yl)-1-o-tolylpropyl)phenyl)piperidine-4-carboxylate] |
| 7.29 | Cc1ccccc1[C@H](C/C(=N\O)C1CCC(=O)N(C)C1)c1ccccc1 (stereo partly drawn) [Example 6, 5-((R,E)-1-(Hydroxyimino)-3-phenyl-3-o-tolylpropyl)-1-methylpiperidin-2-one] |
| 6.25 | Cc1ccccc1[C@H](C/C(=N\O)C1CCC(=O)N(C)C1)c1ccc(-c2ccc(C(=O)O)cc2)cc1 (stereo partly drawn) [Example 7, 4′-((1R,E)-3-(Hydroxyimino)-3-(1-methyl-6-oxopiperidin-3-yl)-1-o-tolylpropyl)biphenyl-4-carboxylic acid] |
| 5.08 | CC(=O)N1CCC(/C(CC(c2ccc(Br)cc2)c2ccccc2C)=N/O)CC1 (stereo not drawn) [Example 8, (E)-1-(4-(3-(4-Bromophenyl)-1-(hydroxyimino)-3-o-tolylpropyl)piperidin-1-yl)ethanone] |
| 6.93 | Cc1ccccc1C(C/C(=N\O)C1CCOCC1)c1ccc(Br)cc1 (stereo not drawn) [Example 9, (E)-3-(4-Bromophenyl)-1-(tetrahydro-2H-pyran-4-yl)-3-o-tolylpropan-1-one oxime] |
| 6.10 | CS(=O)(=O)c1ccc(C(C/C(=N\O)C2CCOCC2)c2ccccc2)cc1 (stereo not drawn) [Example 10, (E)-3-(4-(Methylsulfonyl)phenyl)-3-phenyl-1-(tetrahydro-2H-pyran-4-yl)propan-1-one oxime] |
| 5.00 | Cc1ccccc1C(C/C(=N\O)C1CCSCC1)c1ccc(Br)cc1 (stereo not drawn) [Example 11, (E)-3-(4-Bromophenyl)-1-(tetrahydro-2H-thiopyran-4-yl)-3-o-tolylpropan-1-one oxime] |
| 5.01 | Cc1ccccc1C(C/C(=N\O)C1CCS(=O)(=O)CC1)c1ccc(Br)cc1 (stereo not drawn) [Example 12, 3-(4-Bromo-phenyl)-1-(1,1-dioxo-hexahydro-thiopyran-4-yl)-3-o-tolyl-propan-1-one oxime] |
| 5.70 | Cc1ccccc1C(C/C(=N\O)[C@H]1CC[C@H](O)CC1)c1ccc(Br)cc1 (stereo partly drawn) [Example 13, (E)-3-(4-Bromophenyl)-1-(trans-4-hydroxycyclohexyl)-3-o-tolylpropan-1-one oxime] |
| 6.22 | Cc1ccccc1C(C/C(=N\O)C1CCC(=O)CC1)c1ccc(Br)cc1 (stereo not drawn) [Example 14, (E)-4-(3-(4-bromophenyl)-1-(hydroxyimino)-3-o-tolylpropyl)cyclohexanone] |
| 6.17 | Cc1ccccc1C(C/C(=N\O)C1CCC(O)CC1)c1ccc(S(C)(=O)=O)cc1 (stereo not drawn) [Example 15, (E)-1-(4-Hydroxycyclohexyl)-3-(4-(methylsulfonyl)phenyl)-3-o-tolylpropan-1-one oxime] |
| 5.11 | Cc1ccccc1C(C/C(=N/O)C1CCC(O)CC1)c1ccc(S(C)(=O)=O)cc1 (stereo not drawn) [Example 16, (Z)-1-(4-hydroxycyclohexyl)-3-(4-(methylsulfonyl)phenyl)-3-o-tolylpropan-1-one oxime] |
| 5.01 | Cc1ccccc1C(C/C(=N\O)[C@H]1CC[C@](C)(O)CC1)c1ccc(S(C)(=O)=O)cc1 (stereo partly drawn) [Example 17, (E)-1-((1r,4r)-4-Hydroxy-4-methylcyclohexyl)-3-(4-(methylsulfonyl)phenyl)-3-o-tolylpropan-1-one oxime] |
| 5.41 | Cc1ccccc1C(C/C(=N\O)C1CC(O)C1)c1ccc(Br)cc1 (stereo not drawn) [Example 18, (E)-3-(4-Bromophenyl)-1-(3-hydroxycyclobutyl)-3-o-tolylpropan-1-one oxime] |
